Assay results published in PubChem BioAssay (NCI).
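Each compound was tested at five concentrations against cells in 96-well plates for 48 hours. At the TGI there is no net growth.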

Key:
Assay in all cases: NCI anticancer screen, dose series, 48 h
[1] = tested on: ACHN renal
[2] = tested on: COLO 205 colon
[3] = tested on: DU-145 prostate
[4] = tested on: EKVX NSCLC
[5] = tested on: HOP-92 NSCLC
[6] = tested on: MOLT-4 leukemia
[7] = tested on: SF-295 CNS
[8] = tested on: SK-MEL-2 melanoma
[9] = tested on: SK-MEL-28 melanoma
[10] = tested on: SN12C renal

With Nc1ccc(S(=O)(=O)Nc2nc3ccccc3nc2N2CCCCCC2)cc1 the TGI [1] was greater than 100 µM, the TGI [2] was 33.4 µM and the TGI [3] was greater than 100 µM. It also gave a TGI [4] greater than 100 µM, a TGI [5] of 63.6 µM and a TGI [6] of 55.3 µM. For the same compound, the TGI [7] was 57.3 µM, the TGI [8] was 40.8 µM and the TGI [9] was 39.4 µM. For the same compound, the TGI [10] was 44.9 µM.

Compound CN(C)/N=N/c1nc2c(c(=O)n(C)c(=O)n2C)n1CC(O)CO (stereo unspecified) has a TGI [1] greater than 100 µM, a TGI [2] greater than 100 µM and a TGI [3] greater than 100 µM. For the same compound, the TGI [4] was greater than 100 µM, the TGI [6] was greater than 100 µM and the TGI [7] was greater than 100 µM. The TGI [8] was greater than 100 µM, the TGI [9] was greater than 100 µM and the TGI [10] was greater than 100 µM.

COc1cccc(N=N/C(=N\NC(=O)c2ccc(C)cc2)c2ccc(N(CCC#N)CCC#N)cc2C)c1 gave a TGI [1] greater than 100 µM, a TGI [2] greater than 100 µM and a TGI [3] greater than 100 µM. The TGI [4] was greater than 100 µM, the TGI [5] was greater than 100 µM and the TGI [6] was greater than 100 µM. The TGI [7] was greater than 100 µM, the TGI [8] was greater than 100 µM and the TGI [9] was greater than 100 µM. The TGI [10] was greater than 100 µM.

For O=C(Cc1ccc(Cl)c(Cl)c1)NCC1(N2CCCCC2)CCCCC1, the TGI [1] was greater than 100 µM, the TGI [3] was greater than 100 µM and the TGI [4] was greater than 100 µM. It also gave a TGI [5] greater than 100 µM, a TGI [6] greater than 100 µM and a TGI [7] greater than 100 µM. The TGI [8] was greater than 100 µM and the TGI [10] was greater than 100 µM.

Work on COc1cc2cc(C(=O)N3CC(COS(C)(=O)=O)c4ccc(O)cc43)[nH]c2c(OC)c1OC (stereo unspecified) yielded a TGI [1] of less than 0.0001 µM, a TGI [2] of 0.00194 µM and a TGI [3] of 0.000845 µM. The TGI [4] was 0.00645 µM, the TGI [5] was 0.638 µM and the TGI [6] was 0.0924 µM. The TGI [7] was less than 0.0001 µM, the TGI [8] was less than 0.0001 µM and the TGI [10] was 0.0165 µM.

For O=C1CC(=O)n2cnc3cccc(c32)N1, the TGI [2] was greater than 100 µM, the TGI [3] was greater than 100 µM and the TGI [4] was greater than 100 µM. The TGI [5] was greater than 100 µM, the TGI [7] was greater than 100 µM and the TGI [8] was greater than 100 µM. It also gave a TGI [9] greater than 100 µM and a TGI [10] greater than 100 µM.

In the case of NCC(O)CSCc1ccc(Cl)cc1 (stereo unspecified), the TGI [1] is reported as greater than 100 µM, the TGI [2] is reported as greater than 100 µM and the TGI [3] is reported as greater than 100 µM. The TGI [5] was greater than 100 µM, the TGI [6] was greater than 100 µM and the TGI [7] was greater than 100 µM. The TGI [9] was greater than 100 µM and the TGI [10] was greater than 100 µM.

With COc1cc(C2C3=C(COC3=O)Oc3cc4c(cc32)OCO4)cc(OC)c1O (stereo unspecified) the TGI [1] was 22.9 µM, the TGI [2] was 0.0776 µM and the TGI [3] was 0.391 µM. For the same compound, the TGI [4] was 94.1 µM, the TGI [5] was 5.55 µM and the TGI [6] was 26 µM. For the same compound, the TGI [7] was 15.4 µM, the TGI [8] was 2.51 µM and the TGI [9] was 89.8 µM. It also gave a TGI [10] of 23.2 µM.

NNC(=O)C1(NC(=O)c2ccccc2)C(c2ccccc2)C(c2ccccc2)=NN1c1ccccc1 (stereo unspecified) was tested, and the TGI [1] was greater than 100 µM, the TGI [2] was greater than 100 µM and the TGI [3] was greater than 100 µM. It also gave a TGI [4] greater than 100 µM, a TGI [6] of 40.7 µM and a TGI [7] greater than 100 µM. The TGI [8] was greater than 100 µM, the TGI [9] was greater than 100 µM and the TGI [10] was greater than 100 µM.

With COc1ccc(-c2oc3cc(O)cc(O)c3c(=O)c2OC)cc1 the TGI [1] was greater than 100 µM, the TGI [2] was greater than 100 µM and the TGI [3] was greater than 100 µM. For the same compound, the TGI [4] was greater than 100 µM, the TGI [5] was 16.1 µM and the TGI [6] was 87.9 µM. The TGI [7] was greater than 100 µM and the TGI [9] was greater than 100 µM.

For NCc1cccc(O)c1O, the TGI [1] was greater than 100 µM, the TGI [2] was greater than 100 µM and the TGI [4] was greater than 100 µM. The TGI [5] was greater than 100 µM, the TGI [6] was greater than 100 µM and the TGI [7] was greater than 100 µM. For the same compound, the TGI [8] was greater than 100 µM, the TGI [9] was greater than 100 µM and the TGI [10] was greater than 100 µM.

CN(C)CCn1c(CO)nc2c1c(=O)n(C)c(=O)n2C showed a TGI [1] greater than 100 µM, a TGI [2] greater than 100 µM and a TGI [3] greater than 100 µM. The TGI [4] was greater than 100 µM, the TGI [7] was greater than 100 µM and the TGI [8] was greater than 100 µM. The TGI [9] was greater than 100 µM and the TGI [10] was greater than 100 µM.
